Data as given in the supplement of paper PMC4862054.

Legend:
Test in all cases: normalised response (% of control), CellTiter-Glo; higher = more viable cells (100 = DMSO, 0 = benzethonium chloride kill control)
Conditions in all cases: incubation time: 72 h
[1] = test system: BT-474
Procedure, shortened: (§1)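 Breast cancer cell lines (20 µl suspension) were seeded into 384-well plates holding compound at 5 concentrations in 10-fold steps over a compound-specific 10,000-fold range, then incubated 72 h. CellTox Green fluorescence (485/520 nm) was read first, then CellTiter-Glo luminescence after 10 min at room temperature. Each plate was normalised to 0.1 % DMSO (100) and a positive kill control (0). Each value is the normalised signal at a single concentration of the series.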

[2] = test system: BT-549
Procedure, shortened: as §1

[3] = test system: CAL-120
Procedure, shortened: as §1

[4] = test system: CAL-148
Procedure, shortened: as §1

[5] = test system: CAL-51
Procedure, shortened: as §1

[6] = test system: CAL-85-1
Procedure, shortened: as §1

[7] = test system: DU-4475
Procedure, shortened: as §1

[8] = test system: HCC1143
Procedure, shortened: as §1

[9] = test system: HCC1599
Procedure, shortened: as §1

[10] = test system: HCC1937
Procedure, shortened: as §1

[11] = test system: HDQ-P1
Procedure, shortened: as §1

[12] = test system: Hs578T
Procedure, shortened: as §1

[13] = test system: MCF-10A
Procedure, shortened: as §1

[14] = test system: MDA-MB-231
Procedure, shortened: as §1

[15] = test system: MDA-MB-436
Procedure, shortened: as §1

[16] = test system: MDA-MB-453
Procedure, shortened: as §1

[17] = test system: MDA-MB-468
Procedure, shortened: as §1

[18] = test system: MFM-223
Procedure, shortened: as §1

[19] = test system: SK-BR-3
Procedure, shortened: as §1

Structure (SMILES) | normalised response [1] | normalised response [2] | normalised response [3] | normalised response [4] | normalised response [5] | normalised response [6] | normalised response [7] | normalised response [8] | normalised response [9] | normalised response [10] | normalised response [11] | normalised response [12] | normalised response [13] | normalised response [14] | normalised response [15] | normalised response [16] | normalised response [17] | normalised response [18] | normalised response [19]
O=[N+]([O-])c1ccc2c(c1)S(=O)(=O)C=C2 [Stattic] (5 nM) | 98.6% | 105% | 95.3% | 103% | 102% | 95.5% | 106% | 101% | 114% | 94.6% | 98.8% | 104% | 111% | 96.2% | 99.5% | 106% | 99.8% | 101% | 99.3%
C=CCn1c(=O)c2cnc(Nc3ccc(N4CCN(C)CC4)cc3)nc2n1-c1cccc(C(C)(C)O)n1 [MK1775] (10 nM) | 87.5% | 98.9% | 93.1% | 79.3% | 121% | 93.2% | 93.2% | 92.4% | 107% | 94.5% | 94.4% | 101% | 83% | 90.5% | 88.6% | 81% | 90.4% | 88.8% | 76.1%
Cc1nc(C(=O)NCC(=O)O)c(O)c2ccc(Oc3ccccc3)cc12 [FG-4592] (10 nM) | 104% | 99.1% | 100% | 117% | 90.5% | 101% | 101% | 105% | 104% | 105% | 103% | 103% | 111% | 101% | 95% | 109% | 97.3% | 107% | 109%
CC1(COc2ccc3c(c2)ncn3-c2ccc3cccc(N4CCC(N)CC4)c3n2)COC1 [Crenolanib] (1 nM) | 102% | 110% | 98.5% | 102% | 123% | 96.6% | 108% | 98.5% | 105% | 103% | 102% | 103% | 116% | 98.7% | 97.9% | 90.9% | 102% | 99.5% | 106%
C=CCN(/C=C1/C(=O)O[C@H](COC)[C@@]2(C)C1=C(O)C(=O)C1=C2[C@H](OC(C)=O)C[C@]2(C)C(=O)CC[C@@H]12)CC=C [Sonolisib] (10 nM) | 112% | 102% | 101% | 107% | 108% | 102% | 106% | 107% | 95.1% | 106% | 94.4% | 97.9% | 105% | 102% | 111% | 104% | 101% | 109% | 123%
Cc1cc(Nc2nc(N[C@@H](C)c3ncc(F)cn3)ncc2Cl)[nH]n1 [AZD1480] (1 nM) | 102% | 92.5% | 98% | 89.7% | 113% | 98.4% | 102% | 95.7% | 102% | 96.4% | 96.6% | 99.7% | 97.1% | 99.7% | 101% | 103% | 98.1% | 95.1% | 118%
CC(C)n1cnc2c(NCCc3ccc(O)cc3)nc(-c3csc4ccccc34)nc21 [StemRegenin 1] (10 nM) | 105% | 92.2% | 97.4% | 109% | 68.8% | 96.9% | 100% | 106% | 79.5% | 96.3% | 99.6% | 109% | 105% | 97.5% | 96.1% | 103% | 97.3% | 102% | 98.3%
COc1cc(Nc2c(C#N)cnc3cc(OCCCN4CCN(C)CC4)c(OC)cc23)c(Cl)cc1Cl [Bosutinib] (10 nM) | 100% | 98.4% | 100% | 105% | 92.3% | 94.6% | 97.7% | 100% | 91.1% | 95.5% | 97.3% | 104% | 96.9% | 96.1% | 97.6% | 104% | 107% | 106% | 102%
O=C(O)CNC(=O)c1c(O)c2ccccc2n(Cc2ccccc2)c1=O [IOX-2] (5 nM) | 99.3% | 95.9% | 93.9% | 94.5% | 99.5% | 95.9% | 97.3% | 94.8% | 103% | 95% | 100% | 95% | 106% | 94.5% | 95.4% | 104% | 93.6% | 92.5% | 95.3%
